Test [1] has as its target T1, cdk2/cyclin E (Homo sapiens, UniProt P24941).
T1 construct: made in house; host or cells: insect cells (baculovirus co-infection)
Put plainly: Cyclin-Dependent Kinase 2 Assay (cdk2/cyclin E, GST-Rb substrate). It is filed as biochemical. The conditions noted are these: recombinant cdk2/cyclin E, 10 μM ATP, 30 min at 30° C., several values in a cell = separate determinations, read-out: CDK-2 Inhibition IC50. On the procedure: Substrate: GST-Rb as described above for cdk4/cyclin D1
Assay conditions for cdk2/cyclin E were identical to those for cdk4/cyclin D1 including the substrate. The concentration of recombinant cdk2/cyclin E in the assay was 0.1 μg per 100 μl assay. Incubation was for 30 min at 30° C.

Test [2] concerns the target T2, cdk4/cyclin D1 (Homo sapiens, UniProt P11802).
T2 construct: made in house; host or cells: Sf9 insect cells (Bac-to-Bac baculovirus, pFastBac)
Put plainly: Cyclin-dependent Kinase 4 Assay (cdk4/cyclin D1, GST-Rb substrate). It is filed as biochemical. To be noted: cdk4/cyclin D1 insect cell lysate, 10 μM ATP, 30 min at 37° C., several values = separate determinations, read-out: CDK4 Inhibition IC50. The gist of the method: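 Insect-cell lysate of coexpressed cdk4/cyclin D1 (0.1 μg) acts on GST-Rb (0.5 μg) bound to glutathione-Sepharose, in 50 mM HEPES pH 7.5, 10 mM MgCl2, 1 mM EGTA. Reaction runs 30 min at 37 °C, then is stopped by filtration and TNEN washes. Rb phosphorylation read by scintillation counting; IC50 derived.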

Test [3] concerns MCF-7. Description: In vitro tumor cell proliferation, MCF-7. It is filed as cell-based, human. To be noted: sulforhodamine B or CyQUANT assay, read-out: In vitro Tumor Cell Proliferation (IC50, μM) Breast MCF-7. On the procedure:
(§1) The proliferation of tumor cells was measured using a sulforhodamine B assay as described in Skehan, P., et al., J. Natl. Cancer Inst. […] Tumor cells were harvested with trypsin-EDTA, cells that excluded trypan blue were counted, added to 96-well plates and incubated overnight at 37° C. Drug was added to the wells following dilution in culture medium. Three days later, the medium was removed and replenished with medium containing fresh drug and incubated an additional 4 days. The cells were then fixed with 0.1 ml 10% trichloroacetic acid for 60 min at 4° C. The plates were rinsed five times with tap water, air-dried and stained for 30 min with 0.4% sulforhodamine B in 1% acetic acid and air-dried.
(§2) Alternatively, the CyQUANT cell proliferation assay was used to quantitate cell proliferation.
(§3) Alternatively, the CyQUANT cell proliferation assay was used to quantify tumor cell proliferation. Tumor cells were harvested with trypsin-EDTA, cells that excluded trypan blue were counted, added to 96-well plates and incubated overnight at 37° C. Drug was added to the wells following dilution in culture medium. Three days later the medium was removed and the plates frozen at −80° C. for at least 30 minutes.
MCF7 is a human breast adenocarcinoma, hormone-dependent (HTB 22);

The subject of test [4] is HT-29. Description: In vitro tumor cell proliferation, HT-29. It is filed as cell-based, human. The conditions noted are these: many values given with an undefined *, read-out: In vitro Tumor Cell Proliferation (IC50, μM) Colon HT-29. The gist of the method:
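HT-29 cells seeded overnight at 37° C, then exposed to drug for 3 days, refed with fresh drug-containing medium for 4 more days. Proliferation read by sulforhodamine B staining after TCA fixation; alternatively by CyQUANT after freezing plates at −80° C following 3 days' drug exposure.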

The subject of test [5] is HCT-15. Description: In vitro tumor cell proliferation, HCT-15. The conditions noted are these: read-out: In vitro Tumor Cell Proliferation (IC50, μM) Colon HCT-15. It is filed as cell-based, human. On the procedure:
as §1, §2, §3

The subject of test [6] is MDA-MB-231. Description: In vitro tumor cell proliferation, MDA-MB-231. Type of test: cell-based, human. To be noted: sulforhodamine B or CyQUANT assay, many values given with an undefined *, read-out: In vitro Tumor Cell Proliferation (IC50, μM) Breast MDA-MB-231. The gist of the method:
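Cells plated overnight at 37 °C, then exposed to drug for 3 days, refed with fresh drug and incubated 4 more days. Read-out by sulforhodamine B staining after TCA fixation; alternatively, CyQUANT after 3-day drug exposure and freezing at −80 °C.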

Test [7] relates to A549. Description: In vitro tumor cell proliferation, A549. It is filed as cell-based, human. To be noted: many values given with an undefined *, read-out: In vitro Tumor Cell Proliferation (IC50, μM) Lung A549. The gist of the method:
(§4)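 Cells seeded overnight at 37° C, then exposed to drug diluted in medium; at 3 days medium and drug replenished for another 4 days. Growth read by sulforhodamine B staining after TCA fixation; alternatively by CyQUANT, with plates frozen at −80° C after 3 days of drug.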

For test [8], the system named is DMS-114. Description: In vitro tumor cell proliferation, DMS-114. It is filed as cell-based, human. The conditions noted are these: many values given with an undefined *, read-out: In vitro Tumor Cell Proliferation (IC50, μM) Lung DMS-114. The gist of the method: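 Human small cell lung carcinoma DMS-114 cells plated overnight, then drug-treated for 3 days, medium and drug renewed, and incubated 4 more days. Growth read by sulforhodamine B staining after TCA fixation; alternatively by CyQUANT after 3 days' drug exposure and freezing at −80 °C.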

Test [9] has as its system PC-3. Put plainly: In vitro tumor cell proliferation, PC-3. It is filed as cell-based, human. The conditions noted are these: many values given with an undefined *, read-out: In vitro Tumor Cell Proliferation (IC50, μM) Prostate PC-3. The gist of the method: as §4
In test [10] the test system is DU145. Description: In vitro tumor cell proliferation, DU145. Type of test: cell-based, human. The conditions noted are these: many values given with an undefined *, read-out: In vitro Tumor Cell Proliferation (IC50, μM) Prostate DU145. The gist of the method:
as §4

Setting [11] is: Homo sapiens, MDA-MB-231, MDA-MB-231.

pIC50: −log10 of the molar value. Values joined by “and” are separate entries in the source; they are usually repeats but may differ in a detail not shown here. Equal entries are not always repeated. Structures can show the parent of a compound that is named as a salt. Where two headings read alike, the source gives them in different places.

T2 sequence (P11802 whole entry): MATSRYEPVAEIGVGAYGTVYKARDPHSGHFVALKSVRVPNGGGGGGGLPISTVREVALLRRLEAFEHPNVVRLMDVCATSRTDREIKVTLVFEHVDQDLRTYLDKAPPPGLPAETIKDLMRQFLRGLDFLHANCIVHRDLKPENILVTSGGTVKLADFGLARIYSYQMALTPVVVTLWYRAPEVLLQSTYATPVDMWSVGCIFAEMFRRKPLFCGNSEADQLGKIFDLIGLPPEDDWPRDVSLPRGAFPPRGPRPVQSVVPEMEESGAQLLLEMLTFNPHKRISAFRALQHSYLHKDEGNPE
T2 sequence (P24385 whole entry partner): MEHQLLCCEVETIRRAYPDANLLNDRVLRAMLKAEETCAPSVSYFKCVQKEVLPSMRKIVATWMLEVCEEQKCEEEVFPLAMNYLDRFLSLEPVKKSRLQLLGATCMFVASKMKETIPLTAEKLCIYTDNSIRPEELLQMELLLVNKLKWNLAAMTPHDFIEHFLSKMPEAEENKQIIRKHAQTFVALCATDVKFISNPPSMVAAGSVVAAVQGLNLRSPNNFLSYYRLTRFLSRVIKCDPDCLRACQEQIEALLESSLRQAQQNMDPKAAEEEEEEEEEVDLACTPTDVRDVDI

Regarding `N[C@H]1CC[C@H](Nc2nc(NCc3cccc(I)c3)c3ncn(C4C=CCC4)c3n2)CC1` (relative stereo) [Example 35, 2-[Trans-(4-aminocyclohexyl)amino]-6-[(3-iodobenzyl)amino]-9-(2-cyclopentenyl)purine hydrochloride], the negative-log IC50 (pIC50) is 6.31 and 6.85 in [1]; 5.03 and 5.11 in [2]. The IC50 in test [3] (Homo sapiens, MCF7, MCF-7) turned out to be 2.9 µM; in [3] (MCF-7, hydrochloride), 1.9 µM; in test [4] (HT-29, hydrochloride), 1.9 µM; in [4] (Homo sapiens, HT-29, HT-29), 2.1 µM; in test [5] (HCT-15, hydrochloride) it was 4 µM; in test [5] (Homo sapiens, HCT-15, HCT-15) it was 5.7 µM.

In the case of `N[C@H]1CC[C@H](Nc2nc(NCc3ccc(C(F)(F)F)cc3)c3ncn(C4CCCC4)c3n2)CC1` [Example 1, 2-[Trans-(4-aminocyclohexyl)amino]-6-[(4-trifluorobenzyl)amino]-9-cyclopentylpurine dihydrochloride], the pIC50 in [1] was 6.92 and 7.09; in test [2] it was 5.70 and 5.57 and 5.77. The IC50 was 1.2 µM in [3] (Homo sapiens, MCF7, MCF-7); 1.6 µM in test [3] (MCF-7, dihydrochloride); 1.4 µM in test [6] (setting [11]); 1.5 µM in test [6] (MDA-MB-231, dihydrochloride); 1.6 µM in test [4] (HT-29, dihydrochloride); 1.5 µM in test [4] (Homo sapiens, HT-29, HT-29). In addition, the IC50 in [5] (HCT-15, dihydrochloride) was found to be 2.5 µM; in [5] (Homo sapiens, HCT-15, HCT-15), 2.4 µM; in test [7] (A549, dihydrochloride), 0.9 µM; in test [7] (Homo sapiens, A549, A549) it was 0.97 µM; in test [8] (DMS-114, dihydrochloride) it was 0.86 µM; in [8] (Homo sapiens, DMS-114, DMS-114) it was 1.1 µM. Further, the IC50 in [9] (Homo sapiens, PC-3, PC-3) is 0.96 µM; in test [9] (PC-3, dihydrochloride), 1 µM; in [10] (DU145, dihydrochloride) it was 1.5 µM; in test [10] (Homo sapiens, DU-145, DU145) it was 1.4 µM.

Take `COc1ccc(CNc2nc(N[C@H]3CC[C@H](N)CC3)nc3c2ncn3C2CCCC2)cc1` [Example 8, 2-[Trans-(4-aminocyclohexyl)amino]-6-[(4-methoxybenzyl)amino]-9-cyclopentylpurine dihydrochloride]: the IC50 in [1] is 30 nM (2×) and 48 nM and 22 nM; in [6] (setting [11]), 0.88 µM; in test [6] (MDA-MB-231, dihydrochloride), 1.2 µM; in test [4] (HT-29, dihydrochloride) it was 1.4 µM; in [4] (Homo sapiens, HT-29, HT-29), 1.3 µM; in [5] (HCT-15, dihydrochloride) it was 3.5 µM. The IC50 in test [5] (Homo sapiens, HCT-15, HCT-15) was 4.5 µM; in [7] (A549, dihydrochloride), 1.1 µM; in test [7] (Homo sapiens, A549, A549), 0.8 µM; in test [8] (DMS-114, dihydrochloride) it was 0.89 µM; in test [8] (Homo sapiens, DMS-114, DMS-114), 0.8 µM; in test [9] (Homo sapiens, PC-3, PC-3), 0.98 µM. Also, the IC50 in test [9] (PC-3, dihydrochloride) came out at 0.63 µM; in test [10] (DU145, dihydrochloride), 1.2 µM; in test [10] (Homo sapiens, DU-145, DU145), 0.88 µM. In addition, in test [2], the pIC50 is 5.18 and 5.49.

Consider `COc1ccccc1CNc1nc(N[C@H]2CC[C@H](N)CC2)nc2c1ncn2C1CCCC1` [Example 12, 2-[Trans-(4-aminocyclohexyl)amino]-6-[(2-methoxybenzyl)amino]-9-cyclopentylpurine dihydrochloride], for which the pIC50 in [1] is 6.64; in test [2] it was 5.35 and 5.21. Further, the IC50 is 8.6 µM in test [6] (setting [11]); 11 µM in [6] (MDA-MB-231, dihydrochloride); 8.5 µM in test [4] (HT-29, dihydrochloride); 7.3 µM in test [4] (Homo sapiens, HT-29, HT-29); 16 µM in test [5] (Homo sapiens, HCT-15, HCT-15); 3.5 µM in test [7] (A549, dihydrochloride). The IC50 turned out to be 5.6 µM in [7] (Homo sapiens, A549, A549); 5.4 µM in [8] (Homo sapiens, DMS-114, DMS-114); 4.4 µM in test [9] (Homo sapiens, PC-3, PC-3); 3.5 µM in [9] (PC-3, dihydrochloride); 6.7 µM in test [10] (DU145, dihydrochloride); 3.5 µM in [10] (Homo sapiens, DU-145, DU145).

For the compound `COc1cccc(CNc2nc(N[C@H]3CC[C@H](N)CC3)nc3c2ncn3C2CCCC2)c1OC` [Example 13, 2-[Trans-(4-aminocyclohexyl)amino]-6-[(2,3-dimethoxybenzyl)amino]-9-cyclopentylpurine dihydrochloride], the pIC50 in [1] is 7.30; in [2], 5.54. Further, the IC50 was determined as 2 µM in test [3] (Homo sapiens, MCF7, MCF-7); 2.2 µM in test [6] (setting [11]); 2.6 µM in test [6] (MDA-MB-231, dihydrochloride); 3.4 µM in test [4] (HT-29, dihydrochloride); 3.1 µM in [4] (Homo sapiens, HT-29, HT-29); 1.7 µM in test [7] (Homo sapiens, A549, A549). Besides, the IC50 in test [8] (DMS-114, dihydrochloride) was found to be 1.4 µM; in test [8] (Homo sapiens, DMS-114, DMS-114) it was 1 µM; in test [9] (Homo sapiens, PC-3, PC-3) it was 1.9 µM; in test [9] (PC-3, dihydrochloride) it was 1.3 µM; in test [10] (DU145, dihydrochloride), 1.7 µM; in test [10] (Homo sapiens, DU-145, DU145) it was 0.99 µM.

As to `N[C@H]1CC[C@H](Nc2nc(NCc3ccccc3C(F)(F)F)c3ncn(C4CCCC4)c3n2)CC1` [Example 25, 2-[Trans-(4-aminocyclohexyl)amino]-6-[(2-trifluorobenzyl)amino]-9-cyclopentylpurine dihydrochloride], the pIC50 in [1] is 6.59; in test [2], 5.19 and 5.16. Moreover, the IC50 in test [6] (setting [11]) was 4.5 µM; in test [6] (MDA-MB-231, dihydrochloride) it was 4.3 µM; in test [4] (HT-29, dihydrochloride), 3 µM; in test [4] (Homo sapiens, HT-29, HT-29), 2.6 µM; in test [5] (HCT-15, dihydrochloride), 3.7 µM; in test [5] (Homo sapiens, HCT-15, HCT-15) it was 4 µM. In addition, the IC50 stood at 1.9 µM in [7] (Homo sapiens, A549, A549); 0.95 µM in test [8] (DMS-114, dihydrochloride); 0.85 µM in test [8] (Homo sapiens, DMS-114, DMS-114); 1.1 µM in [9] (Homo sapiens, PC-3, PC-3); 1.7 µM in [9] (PC-3, dihydrochloride); 1.7 µM in [10] (DU145, dihydrochloride). The IC50 in [10] (Homo sapiens, DU-145, DU145) is 0.95 µM.

These data come from patent US6479487B1, “6, 9-disubstituted 2-[trans-(4-aminocyclohexyl)amino] purines” (Aventis Pharmaceuticals Inc., priority 1998, dated 2002).
